This note sets out measurements from US20230270767A1, “INHIBITORS OF ENPP1 AND METHODS OF USING SAME” (The Regents of the University of California, priority 2017, published 2023).

One test relates to C3H mice. In words: Post injury cardiac calcification after cardiac cryo injury in mice (gross inspection, micro CT, biochemical calcium measurement). Format: in vivo, mouse. The conditions noted are these: for post injury cardiac calcification on gross inspection: ENPP1 inhibitor by continuous infusion (mini pump) for 2 days prior to cardiac injury and 5 days after injury, compared to vehicle; for reduction in calcium deposits in the injured hearts (biochemical measurements): ENPP1 inhibitor by continuous infusion for 2 days prior to and 5 days after injury, p<0.05; for decrease in calcific deposits / calcification on micro CT with 3D reconstruction: ENPP1 inhibitor by continuous infusion for 2 days prior to cardiac injury and 5 days after injury, compared to vehicle treated animals. An excerpt:
We next investigated whether cardiac fibroblasts can adopt osteoblast cell like fates in vivo and directly contribute to ectopic calcification of the myocardium. To address this question, we created three murine models of myocardial calcification and determined with lineage trace techniques whether genetically labeled cardiac fibroblasts adopted an osteoblast phenotype and contributed to heart calcification in vivo. Cardiac injury or aging in certain strains of mice (e.g. C3H/HeJ, BALB/cByJ, DBA/2J) can lead to the development of calcification within the myocardium (Glass et al., 2013);(Ivandic et al., 1996);(Korff et al., 2006). We used several different methods to induce myocardial injury in C3H strain of mice. First, we administered high dose systemic steroids daily for 10 days which is known to induce myocyte necrosis (Sparks et al., 1955). […] Finally, ischemic injury of the myocardium by ligating the left anterior descending (LAD) coronary artery, (Korff et al., 2006) led to patchy calcification of the injury region within 4 weeks of ischemic insult (Cell Stem Cell (2017) 20:1-15, the FIGURE). Consistent with the known association of fibrosis and calcification, we observed calcification only in regions where there was fibrosis (identified by Masson trichrome staining) (Cell Stem Cell (2017) 20:1-15, the FIGURE).
Calcification of the extracellular matrix is critically regulated by the balance of extracellular phosphate (Pi) and pyrophosphate (PPi) (Terkeltaub, 2001). Pyrophosphate is generated at the cell surface by the enzyme ectonucleotide pyrophosphatase/phosphodiesterase-1 (ENPP1) that breaks down ATP to AMP and PPi. Pyrophosphate is well recognized to inhibit calcium hydroxyapatite mineralization (Rutsch et al., 2011) in non-skeletal tissues, but in bone and teeth, pyrophosphate promotes mineralization by serving as a substrate for tissue non specific alkaline phosphatase that hydrolyzes pyrophosphate to generate inorganic phosphate (Terkeltaub, 2006). ENPP1 is expressed in osteoblasts, thought to regulate osteoblast maturation and bone mineralization and animals deficient in ENPP1 have decreased mineralization of long bones (Johnson et al., 2003). Considering the importance of ENPP1 in mineralization of the skeleton, we examined whether ENPP1, a gene identified by us to be differentially expressed (by RNA-seq) between calcific and non-calcified cardiac regions was contributing to ectopic cardiac calcification. We first confirmed our observation and subjected C3H mice and B6 mice to cryo-induced cardiac injury. […] Immunostaining for ENPP1 confirmed that ENPP1 was expressed in uninjured B6 hearts (Cell Stem Cell (2017) 20:1-15, the FIGURE) and was more abundant following injury (Cell Stem Cell (2017) 20:1-15, the FIGURE). […] We next determined whether cardiac fibroblasts in the injury region were a source of increased ENPP1 expression. We subjected Col1a2CreERT:R26R^tdTomato mice hearts to cardiac injury and observed abundant expression of ENPP1 by tdTomato labeled cardiac fibroblasts in calcified regions. (Cell Stem Cell (2017) 20:1-15, the FIGURE). Extracellular pyrophosphate generated by ENPP1 can induce mineralization of tissues by precipitating out as calcium pyrophosphate dihydrate (CPPD) or serving as a substrate for phosphate generation and formation of calcium hydroxyapatite. To distinguish between these two, we performed Raman spectroscopy (Chen et al., 2009) and observed that the myocardial calcific deposits comprised calcium hydroxyapatite and not pyrophosphate dihydrate (Cell Stem Cell (2017) 20:1-15, the FIGURE). PPi generated by ENPP1 can be hydrolyzed by tissue non-specific alkaline phosphatase (TNAP) to Pi. The heart is known to express TNAP and we confirmed that both injured and uninjured cardiac tissue is rich in tissue non-specific alkaline phosphatase (TNAP) (Cell Stem Cell (2017) 20:1-15, the FIGURE). […]

The next test deals with C3H animals. In words: Echocardiography of cardiac function after cardiac cryo-injury. Format: in vivo, mouse. An excerpt: We next investigated the physiologic significance of inhibiting cardiac calcification on cardiac function. In a subset of C3H animals, we performed echocardiography to determine cardiac function prior to cardiac cryo-injury and following administration of etidronate. […] Etidronate had no effect on sham injured hearts (Cell Stem Cell (2017) 20:1-15, the FIGURE).

Where [1] appears, read: post injury, compared to vehicle treated control animals.

The structures appear in SMILES notation.

As for `CCN(CC)c1ncnc2c1ncn2[C@@H]1O[C@H](COP(=O)([O-])OP(=O)([O-])C(Br)(Br)P(=O)([O-])O)C(O)C1O.[Na+].[Na+].[Na+]` (stereo partly shown) [ARL67156], in the test on C3H mice, the “post injury cardiac calcification on gross inspection” value is “significantly inhibited calcification”, the “reduction in calcium deposits in the injured hearts (biochemical measurements)” value came to 79% and the “decrease in calcific deposits / calcification on micro CT with 3D reconstruction” value turned out to be 85%.
Turning to `O=C(/C=C/c1ccc(O)c(O)c1)O[C@H](Cc1ccc(O)c(O)c1)C(=O)O` [SYL-001, rosmarinic acid], in the test on C3H mice, the “post injury cardiac calcification on gross inspection” value is “decreased post injury cardiac calcification”, the “reduction in calcium deposits in the injured hearts (biochemical measurements)” value is on record as 35% and the “decrease in calcific deposits / calcification on micro CT with 3D reconstruction” value is reported as 42%.
Regarding `CC(O)(P(=O)(O)O)P(=O)(O)O` [etidronate, etidronic acid], the “amount of deposited calcium” value in the test with C3H mice (administered after the development of calcification, data not shown) is on record as “did not reverse or decrease the amount of deposited calcium”. In addition, the “calcification on gross inspection or on CT scans” value in the test on C3H mice (administered one day prior to cardiac cryo injury and then daily till hearts were harvested) is “no calcification was seen”. Besides, the calcific phenotype result with C3H mice (administered one day prior to cardiac cryo injury and then daily till hearts were harvested, vs vehicle injected controls) was “completely rescued the calcific phenotype”. For the same compound, the “post injury cardiac function” value in the test with C3H animals (C3H animals, cardiac cryo-injury, echocardiography) is listed as “significant preservation of post injury cardiac function”. Moreover, in the test on C3H animals (following injury), the Ejection fraction entry is “substantially better” and the fractional shortening entry is recorded as “substantially better”. For the same compound, the systolic function entry in the test on C3H animals (injured animals, echocardiography) was “better systolic function”. In the test on C3H animals (setting [1]), the “left ventricular end diastolic diameter (LVEDD)” value is “significantly decreased” and the “left ventricular end systolic diameter (LVESD)” value is “significantly decreased”. Moreover, the “effect on sham injured hearts” value in the test with C3H animals (sham injured hearts) was “no effect”.
